Test results as given in patent EP0163240A2, “Dihydroimidazo[1,2-a]pyrimidine derivatives, methods of preparing said compounds and pharmaceutical compositions constaining said compounds” (priority 1984, dated 1985).
Where a name gives a salt, the structure may show the parent alone. Read-outs that look alike come from different tables or passages of the source.

Assays:
[1] = tested on: spontaneously hypertensive rats; test: Effect on hypertension (tail cuff method); assay type: in vivo, male spontaneously hypertensive rats; conditions: 30 mg/kg orally
Procedure: Pharmacological experiment 5: Effect on hypertension
(§1) Each of 30 mg/kg of test compounds A and Q was orally administered to five male spontaneously hypertensive rats and the blood pressure was measured by the tail cuff method. The blood pressure lowering value after 1 hour administration of test compound A was 48 mmHg and that value after 5 hours administration of test compound Q was 64 mmHg. Pharmacological experiment 6: Anticholinergic activity

vertebral blood flow = test: Effect on vertebral blood flow; assay type: in vivo, Adult mongrel dogs; conditions: for ED100: dose required to obtain 100% of the increase of blood flow by 100 µg of papaverine hydrochloride, injected in the vertebral artery, anesthetized dogs; for T 1/2: half-life measured as the duration of effects on vertebral blood flow
Procedure: Pharmacological experiment 3: Effect on vertebral blood flow Adult mongrel dogs were anesthetized with sodium pentobarbital (25 mg/kg, i.v.). The right vertebral artery was perfused and the blood flow was measured. Test compound was injected in the vertebral artery. […] Half-life (T 1/2, minute) was measured as the duration of effects.

liver mitochondria = test: Effect on lipid peroxidation (malondialdehyde formation in liver mitochondria, thiobarbituric acid method); assay type: biochemical, Male Sprague-Dawley rats; conditions: 50% inhibitory concentration on the formation of malondialdehyde; ascorbic acid, ferrous sulfate; 25°C for 30 minutes
Procedure: Pharmacological experiment 4: Effect on lipid peroxidation
Male Sprague-Dawley rats weighing 300-350 g were used. According to the method of Shimada et al described in Biochim. Biophys. Acta, vol. 572, 531 (1979), the liver mitochondria were isolated and ascorbic acid, ferrous sulfate, potassium chloride and Tris-HC1 buffer were added. To the solution was added test compound dissolved in dimethyl sulfoxide, and the mixture was incubated at 25°C for 30 minutes. The amount of malondialdehyde was determined by the thiobarbituric acid method and the 50% inhibitory concentration (IC50, µmol) of test compound on the formation of malondialdehyde was measured.

coronary blood flow = test: Effect on coronary blood flow; assay type: in vivo, Adult mongrel dogs; conditions: for ED50: dose required to increase the coronary blood flow by a half of the effects of nifedipine, injected into the coronary artery, anesthetized dogs; for T 1/2: half-life measured as the duration of effects on coronary blood flow
Procedure: Pharmacological experiment 2: Effect on coronary blood flow Adult mongrel dogs were anesthetized with sodium pentobarbital (30 mg/kg, i.v.). According to the method of Yago et al described in Folia Pharmacol. Japon, vol. 57, 380 (1961), the left coronary artery was perfused and its blood flow was measured. […] The half-life (T 1/2, minute) was measured as the duration of effects.

Trachea of guinea pig = test: Anticholinergic activity (ACh-contracted tracheal strip chain preparation); conditions: for relaxant effect on ACh-contracted preparation: 10^-7-10^-5M; for IC50: Cavia porcellus, read-out: 50% inhibitory concentration (IC50) on ACh-induced contraction
Procedure: as §1
Trachea of guinea pig, weighing 380-550 g, was isolated and prepared its strip chain preparation. The preparation was mounted in organ bath filled with Krebs-Henseleit solution gassed with 95% 02 and 5% CO2. Length of the preparation was measured by isometric transducer (MEC, ME-4012). The preparation was contracted by 10^-6 M of acetylcholine (ACh) and then, test compounds were added cumulatively into the bath to observe relaxant effect.
(§2) Pharmacological experiment 7: Toxicity

ddY strain mice = assay type: in vivo
Excerpt: as §2
Test compounds A, B, C, E and S were orally administered to five ddY strain mice.

[2] = preparation contracted by 10^-6 M of acetylcholine (ACh), cumulative addition
[3] = oral dose of 1000 mg/kg, five mice

Row | SMILES | ED100 (vertebral blood flow) [µg] | T 1/2 (vertebral blood flow) [min] | IC50 (liver mitochondria) [µM] | ED50 (coronary blood flow) [µg] | T 1/2 (coronary blood flow) [min] | other results
1 | CCN(CC)Cc1cnc2n1C(c1cccc([N+](=O)[O-])c1)C(C(=O)OC(CN1CCCCC1)c1ccccc1)=C(C)N2 (single isomer, unassigned) [Compound Q, 2-Piperidino-1-phenylethyl 3-diethylaminomethyl-7-methyl-5-(3-nitrophenyl)-5,8-dihydroimidazo [1,2-a]pyrimidine-6-carboxylate (β-form)] | 18 | 4.0 | – | – | – | blood pressure lowering value ([1]; after 5 hours): 64 mmHg
2 | CCN(CC)Cc1cnc2n1C(c1cccc([N+](=O)[O-])c1)C(C(=O)OC)=C(C)N2 (centres unmarked) [Compound A, Methyl 3-diethylaminomethyl-7-methyl-5-(3-nitrophenyl)-5,8-dihydroimidazo[l,2-a]pyrimidine-6-carboxylate hydrochloride] | 2 | 0.9 | 50 | 2 | 1.0 | blood pressure lowering value ([1]; after 1 hour): 48 mmHg; relaxant effect on ACh-contracted preparation (Trachea of guinea pig): relaxed ACh-contracted preparation in a concentration-dependent manner; IC50 (Trachea of guinea pig; [2]): 1600 nM; survival (ddY strain mice; mouse, in vivo, po, 1000 mg/kg): All mice were survived
3 | CCOC(=O)C1=C(C)Nc2ncc(CN(CC)CC)n2C1c1cccc([N+](=O)[O-])c1 (centres unmarked) [Compound B, Ethyl 3-diethylaminomethyl-7-methyl-5-(3-nitrophenyl)-5,8-dihydroimidazo[l,2-a]pyrimidine-6-carboxylate hydrochloride] | 10 | 0.8 | 20 | 3 | 1.5 | relaxant effect on ACh-contracted preparation (Trachea of guinea pig): relaxed ACh-contracted preparation in a concentration-dependent manner; IC50 (Trachea of guinea pig; [2]): 4000 nM; survival (ddY strain mice; mouse, in vivo, po, 1000 mg/kg): All mice were survived
4 | CCOC(=O)C1=C(C)Nc2ncc(CN(C)Cc3ccccc3)n2C1c1cccc([N+](=O)[O-])c1.Cl.Cl.O (centres unmarked) [Compound C, Ethyl 3-(N-benzyl-N-methylamino)methyl-7-methyl-5-(3-nitrophenyl)-5,8-dihydroimidazo[1,2-a] pyrimidine-6-carboxylate dihydrochloride monohydrate] | 5 | 1.5 | – | 10 | 1.5 | survival (ddY strain mice; mouse, in vivo, po, 1000 mg/kg): All mice were survived
5 | CCOC(=O)C1=C(C)Nc2ncc(N3CCCC3)n2C1c1cccc([N+](=O)[O-])c1 (stereo not drawn) [Compound D, Ethyl 7-methyl-5-(3-nitrophenyl)-3-(l-pyrrolidinyl)-5,8-dihydroimidazo[1,2-a]pyrimidine-6-carboxylate] | – | – | 0.2 | 8 | 1.3 | –
6 | CCN(CC)Cc1cnc2n1C(c1ccccc1C(F)(F)F)C(C(=O)OC)=C(C)N2 (centres unmarked) [Compound E, Methyl 3-diethylaminomethyl-7-methyl-5-(2-trifluoromethylphenyl)-5,8-dihydroimidazo[1,2-a] pyrimidine-6-carboxylate] | – | – | 15 | 5 | 1.0 | survival (ddY strain mice; [3]): All mice were survived
7 | CCOC(=O)C1=C(C)Nc2ncc(N(CC)CC)n2C1c1cccc([N+](=O)[O-])c1 (centres unmarked) [Compound F, Ethyl 3-diethylamino-7-methyl-5-(3-nitrophenyl)-5,8-dihydroimidazo[1,2-a]pyrimidine-6-carboxylate] | – | – | 2 | 12 | 1.0 | –
8 | CCOCc1cnc2n1C(c1cccc([N+](=O)[O-])c1)C(C(=O)OCC)=C(C)N2 (centres unmarked) [Compound G, Ethyl 3-ethoxymethyl-7-methyl-5-(3-nitrophenyl)-5,8-dihydroimidazo[1,2-a]pyrimidine-6-carboxylate] | – | – | 10 | 7 | 1.0 | –
9 | CCCN(CCC)Cc1cnc2n1C(c1cccc([N+](=O)[O-])c1)C(C(=O)OC)=C(C)N2 (centres unmarked) [Compound H, Methyl 3-dipropylaminomethyl-7-methyl-5-(3-nitrophenyl)-5,8-dihydroimidazo[1,2-a]pyrimidine-6-carboxylate] | 2 | 1.0 | – | 7 | 1.0 | –
10 | CCOC(=O)C1=C(C)Nc2ncc(CN(CC)CC)n2C1c1ccccc1[N+](=O)[O-].Cl.Cl.O (centres unmarked) [Compound I, Ethyl 3-diethylaminomethyl-7-methyl-5-(2-nitrophenyl)-5,8-dihydroimidazo[1,2-a]pyrimidine-6-carboxylate dihydrochloride monohydrate] | – | – | – | 10 | 2.0 | –
11 | CCN(CC)Cc1cnc2n1C(c1cccc([N+](=O)[O-])c1)C(C(=O)OCCOC)=C(C)N2 (centres unmarked) [Compound J, 2-Methoxyethyl 3-diethylaminomethyl-7-methyl-5-(3-nitrophenyl)-5,8-dihydroimidazo[1,2-a]pyrimidine-6-carboxylate] | – | – | – | 5 | 1.7 | –
12 | COC(=O)C1=C(C)Nc2ncc(CN(C(C)C)C(C)C)n2C1c1cccc([N+](=O)[O-])c1 (centres unmarked) [Compound K, Methyl 3-diisopropylaminomethyl-7-methyl-5-(3-nitrophenyl)-5,8-dihydroimidazo[1,2-a]pyrimidine-6-carboxylate] | – | – | – | 6 | 1.5 | –
13 | COC(=O)C1=C(C)Nc2ncc(COC(C)C)n2C1c1cccc([N+](=O)[O-])c1 (centres unmarked) [Compound L, Methyl 3-isopropoxymethyl-7-methyl-5-(3-nitrophenyl)-5,8-dihydroimidazo[1,2-a]pyrimidine-6-carboxylate] | – | – | – | 5 | 1.0 | –
14 | CCOC(=O)C1=C(C)Nc2ncc([N+](=O)[O-])n2C1c1ccccc1C(F)(F)F (centres unmarked) [Compound M, Ethyl 7-methyl-3-nitro-5-(2-trifluoromethylphenyl)-5,8-dihydroimidazo[1,2-a]pyrimidine-6-carboxylate] | – | – | – | 5 | 1.0 | –
15 | CCOC(=O)C1=C(C)Nc2ncc(CNCc3ccccc3)n2C1c1cccc([N+](=O)[O-])c1.Cl.Cl (centres unmarked) [Compound N, Ethyl 3-benzylaminomethyl-7-methyl-5-(3-nitrophenyl)-5,8-dihydroimidazo[1,2-a]pyrimidine-6-carboxylate dihydrochloride] | 10 | 0.7 | – | – | – | –
16 | CCCCNCc1cnc2n1C(c1cccc([N+](=O)[O-])c1)C(C(=O)OCC)=C(C)N2.Cl.Cl (centres unmarked) [Compound O, Ethyl 3-butylaminomethyl-7-methyl-5-(3-nitrophenyl)-5,8-dihydroimidazo[1,2-a]pyrimidine-6-carboxylate dihydrochloride] | 15 | 0.7 | – | – | – | –
17 | COC(=O)C1=C(C)Nc2ncc(CN3CCCC3)n2C1c1cccc([N+](=O)[O-])c1 (centres unmarked) [Compound P, Methyl 7-methyl-5-(3-nitrophenyl)-3-(1-pyrrolidinylmethyl)-5,8-dihydroimidazo[1,2-a] pyrimidine-6-carboxylate dihydrochloride] | 6 | 0.6 | – | – | – | IC50 (Trachea of guinea pig; [2]): 2300 nM
18 | CCOC(=O)C1=C(C)Nc2ncc(N(C)Cc3ccccc3)n2C1c1cccc([N+](=O)[O-])c1 (centres unmarked) [Compound R, Ethyl 7-methyl-5-(3-nitrophenyl)-3-(N-benzyl-N-methyl)amino-5,8-dihydroimidazo[1,2-a]pyrimidine-6-carboxylate] | – | – | 0.7 | – | – | –
19 | COC(=O)C1=C(C)Nc2ncc(CNc3ccccc3C(F)(F)F)n2C1c1cccc([N+](=O)[O-])c1 (centres unmarked) [Compound S, Methyl 7-methyl-5-(3-nitrophenyl)-3-(2-trifluoromethylphenyl)aminomethyl-5,8-dihydroimidazo[1,2-a]pyrimidine-6-carboxylate] | – | – | – | – | – | survival (ddY strain mice; [3]): All mice were survived
20 | CN1[C@@H]2CC[C@H]1C[C@@H](OC(=O)C(CO)c1ccccc1)C2 (some centres unmarked) [atropine, reference compound] | – | – | – | – | – | IC50 (Trachea of guinea pig): 0.74 nM
